The values below come from PMC5545217 (Nature Communications, 2017).

For orientation: IC50 means the concentration at which inhibition is half-maximal. Read a high IC50 as a need for much substance. What is called stoichiometry N is the number of molecules, sites or subunits per partner or assembly.

In data set [1] the target is T1, M. tuberculosis ATP-PRT (Mycobacterium tuberculosis, UniProt P9WMN1). Put plainly: biochemical.
For data set [2], the target named is T2, ATP-PRT (Mycobacterium tuberculosis, UniProt P9WMN1).
The target of data set [3] is T2, ATP-PRT. Put plainly: Competition saturation transfer difference (STD) NMR. The format is binding. The settings on record: 20 μM ATP-PRT, 400 μM TIH, L-His 0-3000 μM, pH 8.0. The method, then:
NMR spectra were recorded at 25 °C on a Bruker Avance-600 spectrometer equipped with a triple resonance cryo-probe and operating at a ^1H frequency of 600 MHz. […] Spectra with on-resonance pre-saturation of the enzyme at 0.8 ppm were recorded with a saturation time of 2 s. An off-resonance control spectrum was recorded with a saturation time of 2 s. Water suppression was achieved by excitation sculpting. Data processing and spectral subtractions were performed using Bruker TopSpin 3.2 software.

For data set [4], the target named is T1, M. tuberculosis ATP-PRT. To be noted: cited from earlier work.
The data set “crystal structure” deals with the molecule itself. Put plainly: crystal structure.

Like-named read-outs stand apart in the source and are kept apart here.

Regarding `Nc1ncnc2c1ncn2[C@@H]1O[C@H](COP(=O)(O)OP(=O)(O)OP(=O)(O)O)[C@@H](O)[C@H]1O` [ATP], the “K m,ATP” value is 230 ± 30 µM at M. tuberculosis ATP-PRT [1] ([TIH] 0 mM, L-His inhibition pattern); 200 ± 20 µM at M. tuberculosis ATP-PRT [1] ([TIH] 0.25 mM, L-His inhibition pattern); 180 ± 20 µM at M. tuberculosis ATP-PRT [1] ([TIH] 0.8 mM, L-His inhibition pattern); 160 ± 20 µM at M. tuberculosis ATP-PRT [1] ([TIH] 4 mM, L-His inhibition pattern); 100 ± 10 µM at M. tuberculosis ATP-PRT [1] (activation experiment, unactivated reaction, varying ATP).

As to `O=P(O)(O)OC[C@H]1O[C@H](OP(=O)(O)OP(=O)(O)O)[C@H](O)[C@@H]1O` [PRPP, 5-phospho-α-D-ribose 1-diphosphate], the “K m,PRPP” value on M. tuberculosis ATP-PRT [1] (activation experiment, unactivated reaction, varying PRPP) came to 190 ± 30 µM.

Consider `N[C@@H](Cc1cccs1)C(=O)O` [TIH, 3-(2-thienyl)-L-alanine], for which the ATP-PRT activity restored on M. tuberculosis ATP-PRT [1] (400 µM L-His plus close to 4 mM TIH) is reported as 100%. Moreover, the V max at M. tuberculosis ATP-PRT [1] ([TIH] 0.25 mM, L-His inhibition pattern, varying ATP) turned out to be 0.28 ± 0.01 s⁻¹; on M. tuberculosis ATP-PRT [1] ([TIH] 0.8 mM, L-His inhibition pattern, varying ATP), 0.38 ± 0.01 s⁻¹; at M. tuberculosis ATP-PRT [1] ([TIH] 4 mM, L-His inhibition pattern, varying ATP) it was 0.76 ± 0.01 s⁻¹. Further, the Emax on M. tuberculosis ATP-PRT [1] (read-out: ATP-PRT activity increased up to (maximal activation)) is at most 433%. The molecule also had a αATP on M. tuberculosis ATP-PRT [1] (varying ATP, Eq. 4) of 1.4 ± 0.2. Also, the βATP on M. tuberculosis ATP-PRT [1] (varying ATP, Eq. 4) worked out at 4.9 ± 0.2. Further, the “α (PRPP)” value at M. tuberculosis ATP-PRT [1] (varying PRPP, Eq. 4) is 1.1 ± 0.4. Besides, at M. tuberculosis ATP-PRT [1] (varying PRPP, Eq. 4), the “β (PRPP)” value turned out to be 4.9 ± 0.5. Further, the “Drift time of main ATP-PRT form” value on ATP-PRT [2] (pH 6.8, charge state +28) is on record as 44.2 ms; at ATP-PRT [2] (pH 9.0, charge state +28) it was 44.1 ms.

Regarding `N[C@@H](Cc1c[nH]cn1)C(=O)O` [L-His, L-histidine, reference compound], it took 22 ± 4 µM to reach half-maximal inhibition at M. tuberculosis ATP-PRT [1] (IC50). At M. tuberculosis ATP-PRT [1] (400 µM L-His (20-fold K i)), the “ATP-PRT activity at saturating L-His” value is on record as “fully inhibited”. In addition, the Ki on M. tuberculosis ATP-PRT [1] (L-His inhibition vs ATP, [TIH] 0 mM, read-out: K i,ATP) worked out at 20 ± 1 µM; on M. tuberculosis ATP-PRT [1] (linear noncompetitive inhibition vs. PRPP, no TIH, read-out: K i,PRPP), 16 ± 1 µM. Besides, the “Drift time of main ATP-PRT form” value came out at 44.1 ms at ATP-PRT [2] (pH 6.8, charge state +28) and 44.2 ms at ATP-PRT [2] (pH 9.0, charge state +28). Besides, the “Competition STD NMR outcome” value at ATP-PRT [3] is recorded as “displacement of TIH by L-His”. The “Hill number (n H) for L-His inhibition” value at M. tuberculosis ATP-PRT [4] is on record as 1.5.

B1: Mycobacterium tuberculosis ATP-phosphoribosyltransferase (enzyme)
chain: MLRVAVPNKGALSEPATEILAEAGYRRRTDSKDLTVIDPVNNVEFFFLRPKDIAIYVGSGELDFGITGRDLVCDSGAQVRERLALGFGSSSFRYAAPAGRNWTTADLAGMRIATAYPNLVRKDLATKGIEATVIRLDGAVEISVQLGVADAIADVVGSGRTLSQHDLVAFGEPLCDSEAVLIERAGTDGQDQTEARDQLVARVQGVVFGQQYLMLDYDCPRSALKKATAITPGLESPTIAPLADPDWVAIRALVPRRDVNGIMDELAAIGAKAILASDIRFCRF
notes: also called ATP-PRT; HisG
Take B1: the “stoichiometry N” value in “crystal structure” stood at 6.
